The results in this text go back to patent US9254268B2, “Compositions comprising lipophilic active compounds and method for their preparation” (SOLUBEST LTD., priority 2007, dated 2016).

A short description of series [1]: Thermal properties by Differential Scanning Calorimetry (DSC). The settings on record: for melting enthalpy (melting energy) / melting temperature (endothermic peak): DSC, after preparation.
The nature of series [2]: Particle size of aqueous dispersions by Dynamic Light Scattering. It is filed as physicochemical. The note with it: powder suspended in water. The procedure:
(vii) Particle size of the nanodispersions: measurements were performed using Dynamic Light Scattering (DLS). The method was run on the Malvern Zen 3600, Zetasizer-nano series. The samples were prepared by suspending spray-dried powder in water (0.075-0.1%) at 25-30° C. First, water was added to the appropriate amount of the powder and the mixture was left for 15 min. Then, the suspension was magnetically stirred during 4 min at 300 rpm and 1 ml of the suspension was transferred to a cuvette for measurement. The cuvette was incubated inside the instrument during 5 min for stabilization prior measurement. A series of at least 5 repeating measurements was carried out at 25-30° C. Following parameters are reported from the analysis of volume weighed size distribution: polydispersity index (PDI), the diameter of the main fraction (Z-vol), volume % of main fraction.
The powders produced as described in Examples 1-9 have been suspended in deionized water as described in method (vii) of the section Materials and Methods.
In the Dynamic Light Scattering method, we used two main parameters to characterize the colloidal system: the hydrodynamic diameter of the particles and the width of distribution (polydispersity). […]

The nature of series [3]: Dissolution of resveratrol in Model Fasted Duodenal Solution (MFDS). It is filed as physicochemical. The procedure:
The Model Fasted Duodenal Solution (MFDS) was prepared as follows: a mixture of sodium chloride (3.093 g), sodium hydrophosphate (1.719 g) and sodium taurocholate (0.8065 g) was dissolved in deionized water (300 g) using ultrasonic bath. Lecithin (0.2925 g) was dissolved in 2 ml methylene chloride and added to the buffered solution of sodium taurocholate. The resulting emulsion was stirred for 5 min and then methylene chloride was evaporated under vacuum. The obtained clear micellar solution was adjusted to the volume of 500 ml by deionized water.
For the test procedure, the test resveratrol formulations or raw resveratrol powder (10 mg) were placed into 2 ml microcentrifuge tube and MFDS (1.8 ml) was added to the each tube. The tubes were gently shaken (about 50 rpm) at 37° C. and samplings were taken at 10, 20, 40, 60 and 120 min. For this purpose, the tubes were vortexed at the highest speed for 60 seconds and then centrifuged at 13 000 G for 60 seconds. The solid-free supernatant (0.4 ml) was mixed with 0.4 ml diluent (30% water adjusted to pH 2.5 with phosphoric acid and 70% acetonitrile) and this solution was inserted into an HPLC instrument for determination of resveratrol concentration.

The nature of series [4]: Albendazole dissolution in 0.05 M sodium lauryl sulfate. It is filed as physicochemical. The note with it: after 15 min. The method, then: (iv) The dissolution test was performed in accordance with USP Dissolution Method <711> and FDA Dissolution Methods for Drug Products using the paddle apparatus Distek model 2100A. The quantification was performed using UV spectrophotometer. Appropriate amount of spray dried powders or tablets as well as control powders or tablets were dissolved in 1000 ml of 0.05 M water solution of sodium lauryl sulfate, at 37° C., […]

With `CC(C)c1c(C(=O)Nc2ccccc2)c(-c2ccccc2)c(-c2ccc(F)cc2)n1CC[C@@H](O)C[C@@H](O)CC(=O)O` [Example 18, Atorvastatin], the “broad DSC peak, range” value in series [1] (after storage of six months, attributed to beginning of crystallization) was 116-183 °C. Besides, in series [2], the “kind of dispersion formed in water (observation)” value is reported as “coarse suspensions with large visible particles”.

Take `Oc1ccc(C=Cc2cc(O)cc(O)c2)cc1` [Resveratrol raw powder, Resveratrol]: the Concentration of resveratrol in series [3] (10 min, MFDS, 37° C.) was found to be 76.65 µg/mL; in series [3] (20 min), 103.15 µg/mL; in series [3] (40 min) it was 119.3 µg/mL; in series [3] (60 min) it was 121.05 µg/mL; in series [3] (120 min), 155.6 µg/mL.

`CC(C)OC(=O)C(C)(C)Oc1ccc(C(=O)c2ccc(Cl)cc2)cc1` [Fenofibrate starting material, Fenofibrate]: in series [1], the “melting enthalpy (melting energy)” value amounted to 74.3 J/g and the “melting temperature (endothermic peak)” value is “around 82 °C”.

Consider `CCCSc1ccc2nc(NC(=O)OC)[nH]c2c1` [Raw albendazole crystalline powder, Albendazole], for which, in series [1], the “melting enthalpy (melting energy)” value was determined as 209.7 J/g and the “melting temperature (endothermic peak)” value was “around 215 °C”. The compound further registered an albendazole dissolved in series [4] of 16.6%.
